Source: ChEMBL document CHEMBL1201862, “PubChem BioAssay data set” (2004)
Active and inactive are the calls of the source.

How the values were obtained:
[1] = A cytotoxicity screen of small molecule inhibitors of the PhoP region in Salmonella typhi identified in the primary screen. [Related pubchem assays: 1850, 1864, 1985 ]; type: functional
[2] = target: Luciferin 4-monooxygenase (Photinus pyralis, UniProt P08659); assay: firefly luciferase enzyme inhibitors, dose response, biochemical, luminescence (AID 1891)
[3] = Luminescence Cell-Based Dose Confirmation HTS to Identify Inhibitors of Platelet Dense Granule Release. [Related pubchem assays: 1663 (Primary HTS), 1678 (Summary of Project)]; type: functional
Cytochrome P450 3A4 = Cytochrome P450 3A4 (Homo sapiens, UniProt P08684); details: Potency;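 note: confirmatory qHTS run detecting inhibitors and substrates of CYP3A4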
[4] = target: Voltage-dependent T-type calcium channel subunit alpha-1H (Homo sapiens, UniProt O95180); type: functional;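 note: channel activity triggered by adding a high calcium stimulation buffer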
BJ [5] = assay: cells; type: functional, cell-based; details: Homo sapiens
[6] = cytotoxicity toward DRD oncogenic fibroblasts, dose response, cell-based, non-viral oncogenic, luminescence (AID 1934); type: functional; details: Homo sapiens
BJ [7] = assay: cytotoxicity toward BJ-TERT-LT-ST fibroblasts, dose response, cell-based, RAS-independent, luminescence (AID 1935); type: functional; details: Homo sapiens;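 note: BJ fibroblasts immortalized with TERT plus LT and ST oncogenes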
BJ [8] = assay: cytotoxicity toward BJ-TERT fibroblasts, dose response, cell-based, RAS-independent, luminescence (AID 1933); type: functional; details: Homo sapiens
[9] = cytotoxicity toward NIH3T3 fibroblasts, dose response, counter-screen, cell-based, ATP luminescence, mouse fibroblasts (AID 2010); type: functional;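 note: cells exposed to compound for about 90 hours before reading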
[10] = C. albicans growth with fluconazole, confirmation, fluorescence, retest (AID 2467); type: functional, cell-based
[11] = inhibitors of intracellular T. cruzi replication, confirmation, NIH3T3 host cells, beta-gal luminescence (AID 2044); type: functional, cell-based;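 note: intracellular parasites grown in NIH/3T3 mouse fibroblasts as host cells; luminescent beta-galactosidase reporter signal from transgenic T. cruzi replicating inside host cells; inhibitors lower the luminescence signal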
[12] = NIH-3T3 fibroblast cytotoxicity, dose response, cytotoxicity control, cell-based, fluorescence, Alamar Blue, secondary assay (AID 2327); type: functional;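 note: NIH-3T3 mouse fibroblasts cultured with fluconazole at 8 µg/mL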
[13] = control 3'UTR Renilla luciferase suppression, dose response, counter-screen for Shn3 inhibitor project, cell-based, Clone20-Shn3RL, cherry-picked (AID 624133); type: functional
INS1 = assay: beta cell apoptosis inhibitors, cytokine rescue, dose response, luminescence, retest (AID 449756); type: functional, cell-based; details: Rattus norvegicus;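 note: cell death triggered by IL-1 beta plus TNF-alpha plus IFN-gamma mixture; protective hits raise ATP signal compared with cytokine alone wells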
[14] = HepG2 cell cytotoxicity, dose response, cytotoxicity control for Shn3 inhibitor project, CellTiter-Glo, cherry-picked (AID 624134); type: functional, cell-based
[15] = Shn3 3'UTR reporter inhibitors, dose response, cell-based, Clone20 osteoblasts, firefly luciferase, cherry-picked (AID 624132); type: functional;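 note: firefly luciferase luminescence from reporter carrying the Shn3 3'UTR in osteoblasts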
[16] = THP-1 cell cytotoxicity, dose response, cytotoxicity control for non-replicating M. tuberculosis project (AID 489025); type: functional
cells = type: functional
[17] = ZM109 Env clade C HIV-1 fusion inhibitors, dose response, HeLa effector, CEM target cells, luciferase, cherry-pick (AID 652058); type: functional, cell-based
[18] = inhibitors of clade B AD8 Env fusion, dose response, cell-based, cherry-pick (AID 652062); type: functional;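 note: luciferase signal from cell-cell fusion driven by HIV-1 clade B AD8 Env; potency is for inhibitors of fusion seen as a drop in luminescence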
Estrogen receptor = target: T1, Estrogen receptor (Homo sapiens, UniProt P03372);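 note: potency for inhibiting coactivator peptide recruitment to the receptor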
T1 sequence (P03372 whole entry): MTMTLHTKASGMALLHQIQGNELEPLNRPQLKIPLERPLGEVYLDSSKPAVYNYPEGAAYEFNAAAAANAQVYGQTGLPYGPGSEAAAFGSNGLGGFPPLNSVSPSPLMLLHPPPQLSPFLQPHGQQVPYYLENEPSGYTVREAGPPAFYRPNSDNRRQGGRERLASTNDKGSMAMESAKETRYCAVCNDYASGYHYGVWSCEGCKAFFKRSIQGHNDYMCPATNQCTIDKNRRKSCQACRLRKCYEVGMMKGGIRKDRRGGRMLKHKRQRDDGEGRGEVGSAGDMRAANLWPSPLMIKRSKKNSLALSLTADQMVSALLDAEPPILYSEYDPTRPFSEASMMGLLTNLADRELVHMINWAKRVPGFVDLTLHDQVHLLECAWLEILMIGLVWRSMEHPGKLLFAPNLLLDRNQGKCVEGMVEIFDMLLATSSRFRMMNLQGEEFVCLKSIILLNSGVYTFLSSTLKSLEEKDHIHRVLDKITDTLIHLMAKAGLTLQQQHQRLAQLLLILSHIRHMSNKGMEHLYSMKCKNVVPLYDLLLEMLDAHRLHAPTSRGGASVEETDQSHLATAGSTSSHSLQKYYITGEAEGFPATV

Estrogen receptor beta = Estrogen receptor beta (Homo sapiens, UniProt Q92731); assay: ERβ–SRC-3 coactivator interaction inhibitors, confirmation, orthogonal assay, biochemical, ELISA, streptavidin-HRP readout (AID 1060)
[19] = inhibitors of HIV Env-driven cell fusion, dose response, cherry-pick (AID 652057); type: functional, cell-based
[20] = HepG2 cell cytotoxicity, dose response, cytotoxicity control, cherry-picked samples (AID 1159577); type: functional, cell-based
[21] = P. falciparum Dd2 growth inhibitors, dose response, SYBR Green, cherry-picked samples (AID 1159567); type: functional, cell-based

Chain of Voltage-dependent T-type calcium channel subunit alpha-1H (O95180 whole entry): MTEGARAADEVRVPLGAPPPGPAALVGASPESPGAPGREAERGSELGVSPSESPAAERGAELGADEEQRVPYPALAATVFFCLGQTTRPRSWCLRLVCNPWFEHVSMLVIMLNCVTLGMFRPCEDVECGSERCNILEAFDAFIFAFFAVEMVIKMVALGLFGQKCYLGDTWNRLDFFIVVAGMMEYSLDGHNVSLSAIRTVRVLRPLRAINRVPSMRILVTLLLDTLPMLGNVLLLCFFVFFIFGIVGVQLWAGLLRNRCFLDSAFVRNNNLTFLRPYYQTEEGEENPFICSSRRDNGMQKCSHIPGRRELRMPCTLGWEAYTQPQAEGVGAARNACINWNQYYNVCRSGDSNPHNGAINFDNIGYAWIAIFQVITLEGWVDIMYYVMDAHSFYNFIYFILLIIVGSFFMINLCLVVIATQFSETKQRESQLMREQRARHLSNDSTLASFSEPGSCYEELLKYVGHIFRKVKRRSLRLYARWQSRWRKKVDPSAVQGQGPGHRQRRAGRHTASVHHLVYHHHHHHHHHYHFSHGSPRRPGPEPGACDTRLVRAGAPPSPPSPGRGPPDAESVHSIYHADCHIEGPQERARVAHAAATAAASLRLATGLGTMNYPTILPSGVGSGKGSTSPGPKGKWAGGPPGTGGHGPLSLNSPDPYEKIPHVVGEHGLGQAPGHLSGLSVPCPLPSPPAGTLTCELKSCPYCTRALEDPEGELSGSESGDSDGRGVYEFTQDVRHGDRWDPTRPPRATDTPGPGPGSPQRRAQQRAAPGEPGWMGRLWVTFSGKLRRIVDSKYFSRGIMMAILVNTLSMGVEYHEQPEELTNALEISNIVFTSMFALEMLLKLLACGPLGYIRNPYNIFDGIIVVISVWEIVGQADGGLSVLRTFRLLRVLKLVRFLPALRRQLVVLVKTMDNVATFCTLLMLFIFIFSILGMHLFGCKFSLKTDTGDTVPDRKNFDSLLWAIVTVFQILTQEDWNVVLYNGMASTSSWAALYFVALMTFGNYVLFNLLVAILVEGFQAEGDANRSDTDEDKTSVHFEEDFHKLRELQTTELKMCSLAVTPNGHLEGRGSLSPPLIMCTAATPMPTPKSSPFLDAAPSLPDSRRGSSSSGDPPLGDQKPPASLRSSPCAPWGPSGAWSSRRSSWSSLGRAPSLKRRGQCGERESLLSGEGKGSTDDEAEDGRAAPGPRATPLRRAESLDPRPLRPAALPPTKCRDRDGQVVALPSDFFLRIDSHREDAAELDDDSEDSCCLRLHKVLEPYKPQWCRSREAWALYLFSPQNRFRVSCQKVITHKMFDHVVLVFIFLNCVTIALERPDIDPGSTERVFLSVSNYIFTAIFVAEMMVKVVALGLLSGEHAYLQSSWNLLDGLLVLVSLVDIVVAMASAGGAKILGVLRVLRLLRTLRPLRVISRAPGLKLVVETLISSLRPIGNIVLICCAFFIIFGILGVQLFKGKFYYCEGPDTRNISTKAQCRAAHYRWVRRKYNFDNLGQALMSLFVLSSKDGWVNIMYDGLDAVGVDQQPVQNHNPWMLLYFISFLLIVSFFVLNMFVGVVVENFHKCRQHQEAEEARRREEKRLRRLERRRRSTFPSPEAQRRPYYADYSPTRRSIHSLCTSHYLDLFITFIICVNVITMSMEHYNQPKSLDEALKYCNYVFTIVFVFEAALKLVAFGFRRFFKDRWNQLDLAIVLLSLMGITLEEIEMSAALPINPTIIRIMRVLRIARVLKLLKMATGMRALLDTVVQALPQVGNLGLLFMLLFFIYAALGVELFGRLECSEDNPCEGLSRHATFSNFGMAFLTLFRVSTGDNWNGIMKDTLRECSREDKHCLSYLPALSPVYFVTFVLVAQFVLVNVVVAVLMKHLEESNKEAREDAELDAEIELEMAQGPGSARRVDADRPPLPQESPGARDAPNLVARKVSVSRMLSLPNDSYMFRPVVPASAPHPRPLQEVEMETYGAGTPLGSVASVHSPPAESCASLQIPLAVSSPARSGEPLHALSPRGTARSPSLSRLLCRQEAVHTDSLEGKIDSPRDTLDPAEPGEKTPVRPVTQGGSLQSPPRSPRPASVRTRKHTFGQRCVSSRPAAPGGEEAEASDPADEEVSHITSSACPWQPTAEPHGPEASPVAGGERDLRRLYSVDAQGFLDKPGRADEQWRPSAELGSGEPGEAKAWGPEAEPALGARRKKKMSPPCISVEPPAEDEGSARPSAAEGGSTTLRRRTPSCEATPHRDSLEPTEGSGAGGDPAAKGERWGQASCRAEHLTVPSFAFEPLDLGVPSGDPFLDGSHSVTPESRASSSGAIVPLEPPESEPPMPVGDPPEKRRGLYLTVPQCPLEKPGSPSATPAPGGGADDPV
Chain of Cytochrome P450 3A4 (P08684 whole entry): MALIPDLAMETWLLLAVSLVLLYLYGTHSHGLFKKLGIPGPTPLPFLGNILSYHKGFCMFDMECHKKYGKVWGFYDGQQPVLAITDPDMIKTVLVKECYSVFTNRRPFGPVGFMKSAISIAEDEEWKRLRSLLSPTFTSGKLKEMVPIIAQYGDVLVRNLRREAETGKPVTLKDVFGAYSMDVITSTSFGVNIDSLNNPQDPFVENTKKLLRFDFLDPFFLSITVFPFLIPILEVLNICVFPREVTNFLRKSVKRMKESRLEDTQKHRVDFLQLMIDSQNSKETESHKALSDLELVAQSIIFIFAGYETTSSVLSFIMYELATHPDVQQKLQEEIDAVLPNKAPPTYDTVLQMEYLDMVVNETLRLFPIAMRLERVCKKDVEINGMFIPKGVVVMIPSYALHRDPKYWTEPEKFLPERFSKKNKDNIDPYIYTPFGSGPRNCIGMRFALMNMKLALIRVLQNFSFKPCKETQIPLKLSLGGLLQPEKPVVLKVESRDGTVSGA
Chain of Luciferin 4-monooxygenase (P08659 whole entry): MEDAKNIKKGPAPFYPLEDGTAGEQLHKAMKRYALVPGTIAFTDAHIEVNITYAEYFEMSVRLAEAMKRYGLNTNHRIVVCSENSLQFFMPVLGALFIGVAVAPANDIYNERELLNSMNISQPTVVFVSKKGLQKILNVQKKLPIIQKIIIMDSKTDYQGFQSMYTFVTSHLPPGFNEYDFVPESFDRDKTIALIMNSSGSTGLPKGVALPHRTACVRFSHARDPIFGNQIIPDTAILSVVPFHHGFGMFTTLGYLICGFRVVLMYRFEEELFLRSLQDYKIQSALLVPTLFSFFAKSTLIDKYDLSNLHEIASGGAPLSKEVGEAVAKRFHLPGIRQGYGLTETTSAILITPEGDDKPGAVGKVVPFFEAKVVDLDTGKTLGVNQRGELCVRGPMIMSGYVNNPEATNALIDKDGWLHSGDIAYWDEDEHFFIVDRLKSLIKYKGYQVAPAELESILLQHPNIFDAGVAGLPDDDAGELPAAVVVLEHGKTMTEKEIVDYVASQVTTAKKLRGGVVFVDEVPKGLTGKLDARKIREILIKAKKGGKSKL
Chain of Estrogen receptor beta (Q92731 whole entry, the tested form may be a part): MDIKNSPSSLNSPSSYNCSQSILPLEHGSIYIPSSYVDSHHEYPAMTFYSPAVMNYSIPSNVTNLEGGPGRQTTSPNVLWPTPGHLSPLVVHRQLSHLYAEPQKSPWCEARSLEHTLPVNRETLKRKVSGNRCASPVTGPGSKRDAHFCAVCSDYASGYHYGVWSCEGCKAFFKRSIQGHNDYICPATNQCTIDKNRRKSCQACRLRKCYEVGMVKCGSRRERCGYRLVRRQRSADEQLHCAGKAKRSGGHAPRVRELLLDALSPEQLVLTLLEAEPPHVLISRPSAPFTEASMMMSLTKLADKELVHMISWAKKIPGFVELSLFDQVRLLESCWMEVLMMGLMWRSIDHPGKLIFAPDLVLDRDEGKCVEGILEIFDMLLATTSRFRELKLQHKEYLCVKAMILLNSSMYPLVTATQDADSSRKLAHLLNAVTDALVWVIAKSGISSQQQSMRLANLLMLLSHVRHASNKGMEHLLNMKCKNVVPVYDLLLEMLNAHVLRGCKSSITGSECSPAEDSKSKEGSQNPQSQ

## Clc1ccc(CNCc2cccs2)cc1Cl
[1]
  EC50: > 50 µM (active)

## O=C1NC(=O)C2(CCC(C(=O)O)C2)N1 (stereo not drawn)
[2]
  EC50: > 112 µM (not active)
[3]
  EC50: > 112 µM (not active)

## COC(=O)c1ccc(C(/C=C/[C@@H](C)C(=O)N(C)C)NC(=O)OCc2ccccc2)cc1 (stereo partly drawn)
Cytochrome P450 3A4
  AC50: 10 µM (inconclusive)

## C=CCn1c(O)c(N=NC(=O)c2cccnc2)c2cc(Br)ccc21
[1]
  EC50: > 50 µM (active)

## O=C(CSCc1nc2ccccc2[nH]1)N1CCN(c2cccc(Cl)c2)CC1
[4]
  EC50: 3.55 µM (active)

## COc1cc(SC)ccc1C(=O)NNC(=O)c1cc(C)oc1C
BJ [5]
  EC50: 6.06 µM (active)
[6]
  EC50: 3.82 µM (active)
BJ [7]
  EC50: 18.2 µM (active)
BJ [8]
  EC50: 3.71 µM (inconclusive)
[2]
  EC50: 1.4 µM (active)
[3]
  EC50: 8.87 µM (active)

## Cc1ccc(CC(=O)Nc2ncc([N+](=O)[O-])s2)cc1
[9]
  EC50: > 30 µM (not active)
[10]
  EC50: 0.033 µM (active)
[11]
  EC50: 0.687 µM (active)
[1]
  EC50: > 50 µM (active)
[12]
  EC50: 37.3 µM (active)

## Cc1ccc(C(=O)Nc2cccc3[nH]c(C(F)(F)F)nc23)cc1
[13]
  AC50: 10.3 µM (active)
INS1
  AC50: 7.25 µM (active)
[14]
  AC50: 33.6 µM (active)
[15]
  AC50: 3.93 µM (active)

## Cc1nc(CS(=O)(=O)c2ccc(Cl)cc2)cc(Sc2ccc(Cl)cc2)n1
[4]
  EC50: 4.35 µM (active)

## CC1(C)CC[C@]2(C(=O)O)CC[C@@]3(C)C(=CCC4[C@@]5(C)CCC(O)[C@@](C)(CO)C5CC[C@@]43C)C2C1 (stereo partly drawn)
Cytochrome P450 3A4
  AC50: 12.6 µM (inconclusive)

## Nc1ncnc(Oc2cccc3cccnc23)c1[N+](=O)[O-]
[16]
  CC50: 39.5 µM (active)
cells
  IC50: 10.8 µM (active)

## CC(C)(C)n1nnnc1C(c1ccc(F)cc1)N(Cc1ccc(F)cc1)Cc1ccco1 (stereo not drawn)
INS1
  AC50: 8.41 µM (active)
[4]
  EC50: 2.6 µM (active)

## COc1ccccc1-c1c(C(F)(F)F)n[nH]c1-c1ccc(O)cc1O
[17]
  AC50: 0.97 µM (active)
[13]
  AC50: 1.42 µM (active)
[18]
  AC50: 19 µM (active)
[14]
  AC50: > 70 µM (inactive)
[15]
  AC50: 0.708 µM (active)

## CCOC(=O)C1CCCN(C(=O)c2cc3ncc(Br)cn3n2)C1 (stereo not drawn)
Estrogen receptor
  IC50: 20.7 µM (active)
Estrogen receptor beta
  IC50: 0.0694 µM (not active)

## COc1ccc(NC(=O)c2cc(-c3ccc(C)o3)nc3ccccc23)cc1OC
Estrogen receptor beta
  IC50: 24.7 µM (not active)

## COC1C=CC23c4cc5c(cc4CN(CC2O)C3C1)OCO5 (stereo not drawn)
Cytochrome P450 3A4
  AC50: 39.8 µM (inconclusive)

## O=C(Nc1cccnc1)c1cc(Br)c(Br)s1
[1]
  EC50: > 50 µM (active)

## Oc1ccc(C(c2nnnn2C2CCCC2)N2CCc3ccccc3C2)cc1 (stereo not drawn)
[4]
  EC50: 5.95 µM (active)

## CCOC(=O)c1cc2cc([N+](=O)[O-])ccc2oc1=O
[2]
  EC50: > 112 µM (not active)
[3]
  EC50: > 112 µM (not active)

## O=C(NCCCN1CCOCC1)c1c(O)nc2c(Br)cc(Br)cc2c1O
[16]
  CC50: > 40 µM (active)
cells
  IC50: 1.04 µM (active)

## COc1cccc2oc(-c3ccccc3)cc(=O)c12
Cytochrome P450 3A4
  AC50: 31.6 µM (inconclusive)

## O=C(NCN1CCN(c2ccccn2)CC1)c1cnccn1
[2]
  EC50: > 112 µM (not active)
[3]
  EC50: > 112 µM (not active)

## C[C@H](CO)N1C[C@H](C)[C@H](CN(C)S(=O)(=O)c2ccc(Cl)cc2)Oc2ccc(NC(=O)C3CCCCC3)cc2CC1=O
[17]
  AC50: 2.13 µM (active)
[18]
  AC50: 20.1 µM (active)
[19]
  AC50: 1.36 µM (active)

## C[C@H](CO)N1C[C@H](C)[C@@H](CN(C)C(=O)Nc2cccc3ccccc23)OCCCC[C@H](C)Oc2ccc(N(C)C)cc2C1=O
[17]
  AC50: 24.8 µM (active)

## COc1ccccc1NC(=O)N[C@@H]1CC[C@H](CC(=O)N[C@H](C)c2ccccc2)O[C@@H]1CO
[17]
  AC50: < 0.26 µM (active)
[18]
  AC50: 2.61 µM (active)
[19]
  AC50: 0.97 µM (active)

## C/C(=N\NC(=O)COc1ccccc1[N+](=O)[O-])c1cccs1
[1]
  EC50: > 50 µM (active)

## COc1cccc(CN2CC3(CCN(CC4CC4)CC3)c3c([nH]c4cc(OC)ccc34)[C@H]2CO)c1
[20]
  AC50: 19.7 µM (active)
[21]
  AC50: 5 µM (active)

## COc1ccc(C#Cc2ccc([C@@H]3[C@H](CO)N4CCCCN(Cc5ccncc5)C[C@@H]34)cc2)cc1
[20]
  AC50: 13.6 µM (active)
[21]
  AC50: 0.949 µM (active)

## CC(C)N(C[C@H]1N[C@H](CO)[C@@H]1c1ccc(C2=CCCC2)cc1)C(=O)CN(C)C
[20]
  AC50: > 39 µM (inactive)
[21]
  AC50: 5.21 µM (active)

## C[C@@H]1CN([C@H](C)CO)S(=O)(=O)c2ccc(/C=C/c3ccccc3)cc2O[C@H]1CN(C)Cc1cccnc1
[20]
  AC50: 19.7 µM (active)
[21]
  AC50: 3.7 µM (active)

## COc1c2ccoc2nc2c(OC)c(OCC(O)C(C)(C)O)ccc12 (stereo not drawn) [EVOXINE]
Cytochrome P450 3A4
  AC50: 15.8 µM (inconclusive)

## COC(=O)c1c(C)cc(O)cc1O [METHYL ORSELLINATE]
Cytochrome P450 3A4
  AC50: 12.6 µM (inconclusive)
